# Measured values from patent publication US4803223A (priority 1985, dated 1989).
# Where two headings read alike, the source gives them in different places.
# Assays:
# P388 leukemia = test system: P388 leukemia; design: species or system CDF1-strain mice (male); conditions: mouse, in vivo
# [1] = test system: Ehrlich ascites carcinoma; assay: animal or person; type: in vivo, mice (CD2F1-strain Swiss, female); conditions: Mus musculus, ip, 1440 h, read-out: T/C (%)
# [2] = test system: Walker carcinosarcoma 256; design: species or system Sprague-Dawley rats (male); conditions: rat, in vivo
smiles,measurement,setting,value
O=C(NCCF)Nc1ccc(N(CCF)CCF)cc1 [Compound 8],T/C (%),P388 leukemia; 25 mg/kg,134%
CCN(CCCl)c1ccc(NC(=O)NCCCl)cc1 [Compound 10],response vs control in vivo at 100 mg/kg,[1],222%
CCCN(CCCl)c1cccc(NC(=O)NCCBr)c1 [Compound 11],response vs control in vivo at 100 mg/kg,[1],203%
CN(CCBr)c1ccc(NC(=O)NCCBr)cc1 [Compound 12],T/C (%),[2]; 50 mg/kg,329%
CC(C)N(CCBr)c1ccc(NC(=O)NCCCl)cc1 [Compound 13],T/C (%),P388 leukemia; 100 mg/kg,134%
CCCCCCN(CCCl)c1ccc(NC(=O)NCCF)cc1 [Compound 14],response vs control in vivo at 50 mg/kg,[1],275%
CN(CCI)c1cccc(NC(=O)NCCI)c1 [Compound 15],T/C (%),[2]; 150 mg/kg,220%
C=CCN(CCCl)c1ccc(NC(=O)NCCCl)cc1 [Compound 16],response vs control in vivo at 150 mg/kg,[1],235%
C#CN(CCCl)c1ccc(NC(=O)NCCBr)cc1 [Compound 17],response vs control in vivo at 100 mg/kg,[1],294%
O=C(NCCCl)Nc1ccc(N(CCl)CCCl)cc1 [Compound 18],T/C (%),P388 leukemia; 25 mg/kg,154%
O=C(NCCCl)Nc1ccc(N(CCBr)CCCBr)cc1 [Compound 19],T/C (%),[2]; 50 mg/kg,329%
COCCN(CCCl)c1ccc(NC(=O)NCCCl)cc1 [Compound 20],response vs control in vivo at 50 mg/kg,[1],281%
CCSCCN(CCCl)c1ccc(NC(=O)NCCBr)cc1 [Compound 21],T/C (%),[2]; 100 mg/kg,207%
N#CCCN(CCCl)c1ccc(NC(=O)NCCI)cc1 [Compound 22],T/C (%),[2]; 50 mg/kg,256%
O=C(NCCF)Nc1ccc(N(CCCl)CCOc2ccccc2)cc1 [Compound 23],T/C (%),P388 leukemia; 50 mg/kg,156%
CC=CCN(CCCl)c1cccc(NC(=O)NCCCl)c1 [Compound 24],response vs control in vivo at 150 mg/kg,[1],234%
C=CCCCN(CCCl)c1ccc(NC(=O)NCCCl)cc1 [Compound 25],response vs control in vivo at 100 mg/kg,[1],178%
CC(C)C=CCN(CCCl)c1ccc(NC(=O)NCCBr)cc1 [Compound 26],T/C (%),[2]; 200 mg/kg,216%
O=C(NCCCl)Nc1cccc(N(CC=CCCl)CCCl)c1 [Compound 27],response vs control in vivo at 50 mg/kg,[1],246%
C=CCC(CBr)N(CCBr)c1ccc(NC(=O)NCCBr)cc1 (stereo not shown) [Compound 28],T/C (%),[2]; 25 mg/kg,182%
C=CC(C#N)N(CCCl)c1ccc(NC(=O)NCCCl)cc1 (stereo not shown) [Compound 29],T/C (%),P388 leukemia; 25 mg/kg,187%
CCCOC=CN(CCI)c1ccccc1NC(=O)NCCBr [Compound 30],response vs control in vivo at 200 mg/kg,[1],205%
CSC=CCN(CCCl)c1ccc(NC(=O)NCCCl)cc1 [Compound 31],response vs control in vivo at 150 mg/kg,[1],184%
O=C(NCCCl)Nc1ccc(N(CCF)CCC=CCOc2ccccc2)cc1 [Compound 32],T/C (%),P388 leukemia; 50 mg/kg,150%
C#CCN(CCCl)c1cccc(NC(=O)NCCCl)c1 [Compound 33],T/C (%),[2]; 200 mg/kg,169%
C#CC(C)N(CCI)c1ccc(NC(=O)NCCF)cc1 (stereo not shown) [Compound 34],response vs control in vivo at 150 mg/kg,[1],199%
CC#CCCN(CCBr)c1ccc(NC(=O)NCCCl)cc1 [Compound 35],response vs control in vivo at 150 mg/kg,[1],191%
C#CCCCCN(CCCl)c1ccc(NC(=O)NCCCl)cc1 [Compound 36],response vs control in vivo at 100 mg/kg,[1],186%
